# How the values were obtained:
# Format in all cases: functional
# [1] = test system: Athelia rolfsii; experiment: Fungitoxic activity against Athelia rolfsii assessed as mycelial growth inhibition at 100 ppm after 3 days; settings: Agroathelia rolfsii, 72 h; read-out: GI
# [2] = test system: Pythium; experiment: Fungitoxic activity against Pythium sp. assessed as mycelial growth inhibition at 100 ppm after 3 days; settings: 72 h, read-out: GI
# [3] = test system: Pythium; experiment: Fungitoxic activity against Pythium sp. assessed as mycelial growth inhibition at 10 ppm after 3 days; settings: 72 h, read-out: GI
# [4] = test system: Athelia rolfsii; experiment: Fungitoxic activity against Athelia rolfsii assessed as mycelial growth inhibition at 10 ppm after 3 days; settings: Agroathelia rolfsii, 72 h; read-out: GI
SMILES,inhibition of growth at 100 ppm [1],inhibition of growth at 100 ppm [2],inhibition of growth at 10 ppm [3],inhibition of growth at 10 ppm [4]
CC[C@H](C)[C@H](NC(=O)/C=C/c1ccccc1)C(=O)OC,33%,39%,–,–
CC(C)OC(=O)CNC(=O)/C=C/c1ccc(C(C)C)cc1,79%,70%,11%,37%
CC(C)C[C@H](NC(=O)/C=C/c1ccc(Cl)cc1)C(=O)OC(C)C,89%,70%,7%,32%
COC(=O)[C@H](C)NC(=O)/C=C/c1ccccc1,25%,13%,–,–
CCOC(=O)[C@H](Cc1ccccc1)NC(=O)/C=C/c1ccccc1,62%,26%,–,27%
CCCOC(=O)[C@H](CC(C)C)NC(=O)/C=C/c1ccc(C(C)C)cc1,46%,43%,–,–
COC(=O)[C@H](C)NC(=O)/C=C/c1ccc(C(C)C)cc1,67%,52%,–,–
COC(=O)[C@H](Cc1ccccc1)NC(=O)/C=C/c1ccccc1,49%,37%,–,–
CCOC(=O)[C@H](C)NC(=O)/C=C/c1ccccc1,14%,21%,–,–
CCOC(=O)[C@@H](NC(=O)/C=C/c1ccc(Cl)cc1)[C@@H](C)CC,50%,58%,0%,42%
COC(=O)[C@H](C)NC(=O)/C=C/c1ccc(Cl)cc1,44%,26%,–,–
CCOC(=O)[C@H](C)NC(=O)/C=C/c1ccc(C(C)C)cc1,60%,63%,0%,27%
CCOC(=O)[C@@H](NC(=O)/C=C/c1ccc(Cl)cc1)C(C)C,47%,54%,–,–
CCOC(=O)[C@H](C)NC(=O)/C=C/c1ccc(Cl)cc1,47%,27%,–,–
CCOC(=O)[C@H](CC(C)C)NC(=O)/C=C/c1ccc(C(C)C)cc1,43%,44%,–,–
CC(C)C[C@H](NC(=O)/C=C/c1ccc(C(C)C)cc1)C(=O)OC(C)C,56%,53%,25%,35%
CCOC(=O)[C@@H](NC(=O)/C=C/c1ccc(C(C)C)cc1)[C@@H](C)CC,45%,57%,23%,–
COC(=O)[C@@H](NC(=O)/C=C/c1ccc(C(C)C)cc1)C(C)C,63%,74%,14%,23%
CC(C)OP(=O)(OC(C)C)SCc1ccccc1 [IPROBENFOS],100%,89%,42%,69%
CCCOC(=O)[C@H](C)NC(=O)/C=C/c1ccc(Cl)cc1Cl,51%,61%,0%,14%
CCCOC(=O)[C@H](CC(C)C)NC(=O)/C=C/c1ccc(Cl)cc1Cl,33%,38%,–,–
CCCOC(=O)[C@H](C)NC(=O)/C=C/c1ccccc1,48%,33%,–,–
CCCOC(=O)[C@H](CC(C)C)NC(=O)/C=C/c1ccc(Cl)cc1,56%,38%,–,25%
CCOC(=O)[C@H](CC(C)C)NC(=O)/C=C/c1ccc(Cl)cc1,53%,22%,–,16%
CCCOC(=O)[C@H](C)NC(=O)/C=C/c1ccc(C(C)C)cc1,53%,52%,4%,20%
CCOC(=O)[C@@H](NC(=O)/C=C/c1ccccc1)[C@@H](C)CC,30%,49%,–,–
COC(=O)[C@H](CC(C)C)NC(=O)/C=C/c1ccc(C(C)C)cc1,35%,60%,6%,–
COC(=O)[C@H](Cc1ccccc1)NC(=O)/C=C/c1ccc(Cl)cc1Cl,46%,38%,–,–
CCCOC(=O)CNC(=O)/C=C/c1ccc(Cl)cc1,56%,48%,–,35%
COC(=O)[C@H](CC(C)C)NC(=O)/C=C/c1ccc(Cl)cc1,50%,32%,–,–

# From ChEMBL document CHEMBL3046900, “Synthesis and Fungitoxic Activity of N-Cinnamoyl--Amino Acid Esters” (2000)
